Test results reported in article PMC5949855 (2015).

How the values were obtained:
[1] = system: HT21 (DNA, G4) GGGTTAGGGTTAGGGTTAGGG; assay: UV melting; settings: NH4+ 30 mM, compound concentration not given in material
[2] = system: HT21 (DNA, G4) GGGTTAGGGTTAGGGTTAGGG; assay: ITC; settings: for K a1: two-event model, high-affinity site
[3] = system: HT21 (DNA, G4) GGGTTAGGGTTAGGGTTAGGG; assay: UV melting, 295 nm; settings: no monovalent cation added; compound concentration not given in material
[4] = system: L-HT21 (L-DNA, G4, all nucleotides L-DNA (enantiomer of HT21)) GGGTTAGGGTTAGGGTTAGGG; assay: CD; settings: NH4+ 30 mM; mirror image CD of the HT21 complex
[5] = value given for CuL1-CuL4 together
[6] = NH4+ 30 mM, 20 mM MOPS pH 6.5, 298 K

SMILES: CN(C)CCOc1ccc(-c2cc(-c3ccccn3)nc(-c3ccccn3)c2)cc1.O=[N+]([O-])[O-].O=[N+]([O-])[O-].[Cu+2]
- ΔTm [1, 5]: ~ 20 °C
- K a1 [2, 6]: (1.7 ± 0.3) × 10^7 M^–1

SMILES: Cc1ccc(-c2cc(-c3ccccn3)nc(-c3ccccn3)c2)cc1.O=[N+]([O-])[O-].O=[N+]([O-])[O-].[Cu+2]
- ΔTm [1]: ~ 10 °C
- Ka ([2]; NH4+ 30 mM, 20 mM MOPS pH 6.5, 298 K, one-event binding model): (2.0 ± 0.5) × 10^5 M^–1

SMILES: O=[N+]([O-])[O-].O=[N+]([O-])[O-].[Cu+2].c1ccc(-c2cc(-c3ccc(OCCN4CCCC4)cc3)cc(-c3ccccn3)n2)nc1
- ΔTm [3]: ~ 13 °C
- ΔTm [1, 5]: ~ 20 °C
- binding [4]: yes
- K a1 [2, 6]: (1.7 ± 0.2) × 10^7 M^–1
- Ka ([2]; no monovalent cation added, 298 K, three-event model, first (strongest) event): (1.5±0.6)E8 M^-1

SMILES: O=[N+]([O-])[O-].O=[N+]([O-])[O-].[Cu+2].c1ccc(-c2cc(-c3ccc(OCCN4CCCCC4)cc3)cc(-c3ccccn3)n2)nc1
- ΔTm [1, 5]: ~ 20 °C
- K a1 [2, 6]: (1.7 ± 0.3) × 10^7 M^–1

SMILES: O=[N+]([O-])[O-].O=[N+]([O-])[O-].[Cu+2].c1ccc(-c2cc(-c3ccc(OCCN4CCOCC4)cc3)cc(-c3ccccn3)n2)nc1
- ΔTm [1, 5]: ~ 20 °C
- K a1 [2, 6]: (1.7 ± 0.3) × 10^7 M^–1

SMILES: O=[N+]([O-])[O-].O=[N+]([O-])[O-].[Cu+2].c1ccc(-c2cccc(-c3ccccn3)n2)nc1
- ΔTm [1]: ~ 5 °C
- binding ([2]; NH4+ 30 mM, 20 mM MOPS pH 6.5, 298 K, affinity too low to be determined): weak
